# Measurements from patent US20240165188A1, “Method for the treatment of microbial overgrowth, imbalance and infections” (TRINUTRA LTD., priority 2021, published 2024).
# System: C. albicans (Robin) Berkhout (ATCC catalogue no. 96901), fluconazole resistant
# Test: Disc diffusion assay, inhibition of Candida albicans growth on agar
# Format: cell-based
# Conditions: C. albicans fluconazole-resistant strain; undiluted (100%); 24 hours; FIG. 2
# Description: A frozen stock of C. albicans (Robin) Berkhout (ATCC catalogue no. 96901) was thawed and incubated at 25 degrees Celsius for 72 hours in 200 YM medium. Following dilution 1:10, the culture was incubated for a further 24 hours. Following further dilution (1:10), the culture is grown for an additional 3 hours prior to use.
# Antibiotic assay discs (Whatman discs, supplied by Sigma-Aldrich) were prepared in advance by means of saturating them with the test solutions and controls.
# Agar plates were prepared and labelled as described in Example 1, above. The plates were then incubated at 25° C. and the area of inhibited fungal growth was measured and photographed after 24 hours.
# • 1. Black seed oil 3% thymoquinone (TQ), 2% FFA. • 2. Black seed oil 3% thymoquinone (TQ), 10% FFA. • 3. Black seed oil 0.5% thymoquinone (TQ), 2% FFA. • 4. Black seed oil 0.5% thymoquinone (TQ), 10% FFA. • 5. Black seed oil 1.8% thymoquinone (TQ), 2% FFA formulation
# • 6. Negative control (empty discs) • 7. Positive control I (0.05% zinc pyrithione). • 8. Positive control II (100 micrograms fluconazole)
# All concentrations given above are w/w concentrations. The various black seed oil preparations were cold-pressed Nigella sativa oils obtained from NS Oils Ltd. (Kibbutz Sa'ad, Israel).
# Each of the 5 test substances (at a concentration of 100%, i.e., undiluted) was assayed for antifungal activity, as described above.
structure (smiles),measurement,value
OC(Cn1cncn1)(Cn1cncn1)c1ccc(F)cc1F [fluconazole],size of the fungal inhibition zones (antifungal effect),lack of inhibitory activity
